Assay results taken from patent US20230278972A1, “SUBSTITUTED HALOALKYL SULFONANILIDE HERBICIDES” (FMC Corporation, priority 2020, published 2023).

Assays:
Assay type in all cases: in vivo
[1] = test system: ragweed (common ragweed, Ambrosia artemisiifolia); assay: Test A postemergence, ragweed; conditions: Postemergence, 0 to 100 scale (0 no effect, 100 complete control); for Plant response rating, Ragweed: 125 g ai/ha; for Ragweed plant response rating: 500 g ai/ha, visual injury vs untreated controls after approx. 10 days
Text: (§1) Seeds of plant species selected from barnyardgrass (Echinochloa crus-galli), kochia (Bassia scoparia), ragweed (common ragweed, Ambrosia artemisiifolia), Ryegrass, Italian (Italian ryegrass, Lolium multiflorum), Foxtail, Giant (giant foxtail, Setaria faberi), and pigweed (Amaranthus retroflexus) were planted into a blend of loam soil and sand and treated preemergence with a directed soil spray using test chemicals formulated in a non-phytotoxic solvent mixture which included a surfactant. At the same time, plants selected from these weed species and also wheat (Triticum aestivum), corn (Zea mays), blackgrass (Alopecurus myosuroides), and galium (catchweed bedstraw, Galium aparine) were planted in pots containing the same blend of loam soil and sand and treated with postemergence applications of test chemicals formulated in the same manner. Plants ranged in height from 2 to 10 cm and were in the one- to two-leaf stage for the postemergence treatment. […] A dash (-) response means no test result.

[2] = test system: barnyardgrass (Echinochloa crus-galli); assay: Test A postemergence, barnyardgrass; conditions: Postemergence, 0 to 100 scale (0 no effect, 100 complete control); for Plant response rating, Barnyardgrass: 125 g ai/ha; for Barnyardgrass plant response rating: 500 g ai/ha, visual injury vs untreated controls after approx. 10 days
Text: as §1

[3] = test system: Foxtail, Giant (giant foxtail, Setaria faberi); assay: Test A preemergence, Foxtail, Giant; conditions: Preemergence; for Foxtail, Giant plant response rating: 125 g ai/ha, visual injury on 0 to 100 scale (0 no effect, 100 complete control), approximately 10 days; for Plant response rating, Foxtail, Giant: 500 g ai/ha, 0 to 100 scale (0 no effect, 100 complete control)
Text: as §1

[4] = test system: blackgrass (Alopecurus myosuroides); assay: Test A postemergence, blackgrass; conditions: Postemergence, 0 to 100 scale (0 no effect, 100 complete control); for Plant response rating, Blackgrass: 125 g ai/ha; for Blackgrass plant response rating: 500 g ai/ha, visual injury vs untreated controls after approx. 10 days
Text: as §1

[5] = test system: pigweed (Amaranthus retroflexus); assay: Test A postemergence, pigweed; conditions: Postemergence, 0 to 100 scale (0 no effect, 100 complete control); for Plant response rating, Pigweed: 125 g ai/ha; for Pigweed plant response rating: 500 g ai/ha, visual injury vs untreated controls after approx. 10 days
Text: as §1

[6] = test system: Ryegrass, Italian (Italian ryegrass, Lolium multiflorum); assay: Test A postemergence, Ryegrass, Italian; conditions: Postemergence, 0 to 100 scale (0 no effect, 100 complete control); for Plant response rating, Ryegrass, Italian: 125 g ai/ha; for Ryegrass, Italian plant response rating: 500 g ai/ha, visual injury vs untreated controls after approx. 10 days
Text: as §1

[7] = test system: Foxtail, Giant (giant foxtail, Setaria faberi); assay: Test A postemergence, Foxtail, Giant; conditions: Postemergence, 0 to 100 scale (0 no effect, 100 complete control); for Plant response rating, Foxtail, Giant: 125 g ai/ha; for Foxtail, Giant plant response rating: 500 g ai/ha, visual injury vs untreated controls after approx. 10 days
Text: as §1

[8] = test system: galium (catchweed bedstraw, Galium aparine); assay: Test A postemergence, galium; conditions: Postemergence, 0 to 100 scale (0 no effect, 100 complete control); for Plant response rating, Galium: 125 g ai/ha; for Galium plant response rating: 500 g ai/ha, visual injury vs untreated controls after approx. 10 days
Text: as §1

[9] = test system: barnyardgrass (Echinochloa crus-galli); assay: Test A preemergence, barnyardgrass; conditions: Preemergence; for Barnyardgrass plant response rating: 125 g ai/ha, visual injury on 0 to 100 scale (0 no effect, 100 complete control), approximately 10 days; for Plant response rating, Barnyardgrass: 500 g ai/ha, 0 to 100 scale (0 no effect, 100 complete control)
Text: as §1

[10] = test system: kochia (Bassia scoparia); assay: Test A preemergence, kochia; conditions: Preemergence; for Kochia plant response rating: 125 g ai/ha, visual injury on 0 to 100 scale (0 no effect, 100 complete control), approximately 10 days; for Plant response rating, Kochia: 500 g ai/ha, 0 to 100 scale (0 no effect, 100 complete control)
Text: as §1

[11] = test system: Ryegrass, Italian (Italian ryegrass, Lolium multiflorum); assay: Test A preemergence, Ryegrass, Italian; conditions: Preemergence; for Ryegrass, Italian plant response rating: 125 g ai/ha, visual injury on 0 to 100 scale (0 no effect, 100 complete control), approximately 10 days; for Plant response rating, Ryegrass, Italian: 500 g ai/ha, 0 to 100 scale (0 no effect, 100 complete control)
Text: as §1

[12] = test system: corn (Zea mays); assay: Test A postemergence, corn; conditions: Postemergence, 0 to 100 scale (0 no effect, 100 complete control); for Plant response rating, Corn: 125 g ai/ha; for Corn plant response rating: 500 g ai/ha, visual injury vs untreated controls after approx. 10 days
Text: as §1

[13] = test system: ragweed (common ragweed, Ambrosia artemisiifolia); assay: Test A preemergence, ragweed; conditions: Preemergence; for Ragweed plant response rating: 125 g ai/ha, visual injury on 0 to 100 scale (0 no effect, 100 complete control), approximately 10 days; for Plant response rating, Ragweed: 500 g ai/ha, 0 to 100 scale (0 no effect, 100 complete control)
Text: as §1

[14] = test system: wheat (Triticum aestivum); assay: Test A postemergence, wheat; conditions: Postemergence, 0 to 100 scale (0 no effect, 100 complete control); for Plant response rating, Wheat: 125 g ai/ha; for Wheat plant response rating: 500 g ai/ha, visual injury vs untreated controls after approx. 10 days
Text: as §1

[15] = test system: kochia (Bassia scoparia); assay: Test A postemergence, kochia; conditions: Postemergence, 0 to 100 scale (0 no effect, 100 complete control); for Plant response rating, Kochia: 125 g ai/ha; for Kochia plant response rating: 500 g ai/ha, visual injury vs untreated controls after approx. 10 days
Text: as §1

| Compound | Plant response rating, Ragweed [1] | Ragweed plant response rating [1] | Plant response rating, Barnyardgrass [2] | Barnyardgrass plant response rating [2] | Foxtail, Giant plant response rating [3] | Plant response rating, Foxtail, Giant [3] | Plant response rating, Blackgrass [4] | Blackgrass plant response rating [4] | Plant response rating, Pigweed [5] | Pigweed plant response rating [5] | Plant response rating, Ryegrass, Italian [6] | Ryegrass, Italian plant response rating [6] | Plant response rating, Foxtail, Giant [7] | Foxtail, Giant plant response rating [7] | Plant response rating, Galium [8] | Galium plant response rating [8] | Barnyardgrass plant response rating [9] | Plant response rating, Barnyardgrass [9] | Kochia plant response rating [10] | Plant response rating, Kochia [10] | further results |
| --- | --- | --- | --- | --- | --- | --- | --- | --- | --- | --- | --- | --- | --- | --- | --- | --- | --- | --- | --- | --- | --- |
| C#CCN(C)C(=O)c1cc(N(S(=O)(=O)C(F)(F)F)S(=O)(=O)C(F)(F)F)c(C)c(F)c1C [Compound 147] | 90 | 90 | 90 | 90 | 90 | 100 | 0 | 30 | 70 | 90 | 30 | 70 | 70 | 90 | 80 | 90 | 90 | 100 | 70 | 90 | Ryegrass, Italian plant response rating [11]: 90; Plant response rating, Ryegrass, Italian [11]: 100; Plant response rating, Corn [12]: 10; Corn plant response rating [12]: 80; Ragweed plant response rating [13]: 90; Plant response rating, Ragweed [13]: 90; Plant response rating, Wheat [14]: 30; Wheat plant response rating [14]: 60; Plant response rating, Kochia [15]: 50; Kochia plant response rating [15]: 70 |
| Cc1cc(C)c(C2=NOC3CCCC23)cc1NS(=O)(=O)C(F)(F)F (stereo not drawn) [Compound 164] | 70 | 90 | 80 | 90 | 90 | 100 | 0 | 40 | 70 | 90 | 80 | 90 | 0 | 40 | 80 | 90 | 90 | 100 | 100 | 100 | Ryegrass, Italian plant response rating [11]: 80; Plant response rating, Ryegrass, Italian [11]: 100; Plant response rating, Corn [12]: 0; Corn plant response rating [12]: 80; Ragweed plant response rating [13]: 90; Plant response rating, Ragweed [13]: 100; Plant response rating, Wheat [14]: 60; Wheat plant response rating [14]: 70; Plant response rating, Kochia [15]: 60; Kochia plant response rating [15]: 90 |
| Cc1cc(C(F)(F)F)c(NS(=O)(=O)C(F)(F)F)cc1C(=O)N1CCCCC1 [Compound 165] | 0 | 60 | 0 | 30 | 80 | 90 | 0 | 10 | 60 | 90 | 0 | 30 | 0 | 0 | 80 | 90 | 20 | 30 | 90 | 100 | Ryegrass, Italian plant response rating [11]: 50; Plant response rating, Ryegrass, Italian [11]: 70; Plant response rating, Corn [12]: 0; Corn plant response rating [12]: 0; Ragweed plant response rating [13]: 50; Plant response rating, Ragweed [13]: 100; Plant response rating, Wheat [14]: 0; Wheat plant response rating [14]: 0; Plant response rating, Kochia [15]: 10; Kochia plant response rating [15]: 60 |
